6 compounds from patent EP0251126B1, “1,7-substituted heptyne-2-ones” (priority 1986, dated 1988) can be followed below.

Test [1] concerns the target postsynaptic muscarinic cholinergic receptors on intestinal (ileal) longitudinal smooth muscle (Cavia porcellus, UniProt Q8VH26). Format: biochemical, guinea-pigs. The following applies: guinea pig ileum longitudinal muscle, carbachol as agonist. Here is the method: The cavity is opened and the small intestine is removed, with about 10 cm of the terminal ileum being discarded. […] The segments are preferentially taken from the aboral end of the ileum.
The preparations are allowed to recover for an additional 12 minutes before being used in experiments.
(§1) Serial dilutions (1:10) in saline or water are made from the stock solution.
(§2) Serial dilutions (1:10) in saline or water are made from the stock solution. […] Serial dilutions (1:10) in water are made from the stock solution. Other solvents may be used when appropriate and will be specifically described in the experimental procedure. Appropriate volumes are then added to the baths in order to obtain the desired bath concentrations.
(§3) With each concentration step, the tissue contracts isometrically. The next concentration is added only after the preceding contraction has reached a steady value.
Three or four different concentrations of antagonist are studied in the same preparations. Responses are expressed relative to the maximum contraction elicited by carbachol in the absence of antagonist.

Test [2] has as its target postsynaptic muscarinic cholinergic receptors on bladder detrusor muscle (Cavia porcellus, UniProt Q8VH26). Format: biochemical, guinea-pigs. The following applies: guinea pig bladder strips, carbachol as agonist. The protocol: as §1, §2, §3
Three or four different concentrations of antagonist are studied in the same preparations.

The subject of test [3] is bladder contraction strength (PvesP). Format: in vivo, Guinea pigs. Particulars: T-1/2 of the compound compared with T-1/2 of oxybutynin.
Source text: To assess test compounds with a more intact model system, a method which more closely mimics the natural slow filling of the bladder is used.
This clinical CMG is produced by catheterizing the bladder so it may be filled, emptied and refilled with fluid while simultaneously measuring the internal bladder pressure (Pves). […] This allows the bladder to reach maximum capacity/pressure before sensory systems initiate the normal urge and micturition reflex patterns. We use a modification of this clinical test to determine duration of action of test compounds by repeated filling of the bladder following i.v. administration of the test compound. Peak pressure above the threshold pressure is the primary measure of action which can be inhibited by the test compounds and can be used to determine potency and duration of action in this anesthetized Guinea pig model. […]
Test drugs and reference compounds are normally prepared as a solution in normal saline, acidified or made basic as needed to get the compound into solution at the desired concentration. Drugs are delivered at selected mg/kg (calculated as free base) doses i.v. in a volume of approximately 0.5 to 0.8 ml. […]

Sequence of postsynaptic muscarinic cholinergic receptors on bladder detrusor muscle (Q8VH26 entry or part of it): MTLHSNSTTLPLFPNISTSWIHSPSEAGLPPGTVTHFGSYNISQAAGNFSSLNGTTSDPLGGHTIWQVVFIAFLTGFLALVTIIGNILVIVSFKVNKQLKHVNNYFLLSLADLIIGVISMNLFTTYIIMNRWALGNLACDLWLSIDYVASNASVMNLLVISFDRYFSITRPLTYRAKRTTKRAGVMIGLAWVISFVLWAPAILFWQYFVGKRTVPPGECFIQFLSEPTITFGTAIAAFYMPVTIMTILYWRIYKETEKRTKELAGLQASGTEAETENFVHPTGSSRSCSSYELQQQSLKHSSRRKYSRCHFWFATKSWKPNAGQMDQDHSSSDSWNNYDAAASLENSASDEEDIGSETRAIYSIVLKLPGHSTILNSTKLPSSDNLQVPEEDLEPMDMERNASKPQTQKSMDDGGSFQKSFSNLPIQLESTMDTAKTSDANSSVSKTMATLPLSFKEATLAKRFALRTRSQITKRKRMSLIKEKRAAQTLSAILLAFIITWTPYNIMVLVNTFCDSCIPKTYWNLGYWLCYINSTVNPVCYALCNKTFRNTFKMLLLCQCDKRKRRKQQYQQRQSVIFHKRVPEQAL
Sequence of postsynaptic muscarinic cholinergic receptors on intestinal (ileal) longitudinal smooth muscle (Q8VH26 entry or part of it): as above

Turning to “1-(6-Diethylaminohex-4-yn-2-one)-1-hydroxy-1,2,3,4-tetrahydronaphthalene N-cyclohexylsulfamate hydrate [Compound 11]”, the Kb was greater than 1000 nM in test [1] and 512 nM in test [2].
Consider `CCN(CC)CC#CCCC1(C(O)(c2ccccc2)C2CCCCC2)SCCCS1` (centres unmarked) [Compound 2, 1-Cyclohexyl-1-phenyl-1-hydroxy-7-diethylaminohept-5-yn-2-one bis (1,3-propylene)dithioketal hemioxalate], for which, in test [2], the “Bladder Kb” value is “enhance”.
Regarding `CCN(CC)CC#CCCC(=O)C(C)(O)c1ccccc1.O=C(O)C(=O)O` (centres unmarked) [Compound 7, 2-Hydroxy-2-phenyl-8-(N,N-diethylamino)oct-6-yn-3-one oxalate], in test [1], the “Ileum Kb” value was “NC 10µM”.
With `CCNCC#CCCC(=O)C(O)(c1ccccc1)C1CCCCC1` (centres unmarked) [Compound 10, 1-Cyclohexyl-1-hydroxy-phenyl-7-ethylamino-hept-5-yn-2-one hemifumarate, hydrate], in test [3], the “half-lives of PvesP depression relative to oxybutynin” value stood at 1.78 times longer.
With `CN(C)CC#CCCC(=O)C(O)(c1ccccc1)C1CCCCC1` (centres unmarked) [Compound 18, 1-Cyclohexyl-1-hydroxy-1-phenyl-7-dimethylaminohept-5-yn-2-one], the “half-lives of PvesP depression relative to oxybutynin” value in test [3] turned out to be 2.65 times longer.
In the case of `CCN(CC)CC#CCC(=O)CC1(O)CCc2ccccc21.CCN(CC)CC#CCC(=O)CC1(O)CCc2ccccc21.O.O=C(O)C(=O)O.O=C(O)C(=O)O` (centres unmarked) [Compound 21, 1-(6-N,N-Diethylaminohex-4-yn-2-one)-1-hydroxyindan oxalate semihydrate], the “Ileum Kb” value in test [1] is recorded as “N.E”. Besides, in test [2], the “Bladder Kb” value is “N.E”.
